Experimental data: ChEMBL document CHEMBL3407472, “Multi-parameter optimization of aza-follow-ups to BI 207524, a thumb pocket 1 HCV NS5B polymerase inhibitor. Part 2: Impact of lipophilicity on promiscuity and in vivo toxicity” (Bioorg Med Chem Lett, 2015)

Key:
[1] = Half life in rat liver microsomes at 2 uM; assay type: ADME
[2] = Lipophilicity, log D of the compound at pH 7.4; assay type: physicochemical; conditions: buffer
[3] = Half life in human liver microsomes at 2 uM; assay type: ADME
[4] = Plasma concentration in rat at 2 mg/kg, po each in 0.5% Methylcellulose and 0.3% Tween-80 and 1% N-methylpyrrolidone after 1 hr; assay type: ADME, organism-based; design: dose 2 mg/kg, route oral
Hepatitis C virus [5] = test: Antiviral activity against Hepatitis C virus genotype 1b infected in human Huh cells assessed as inhibition of viral replication by RT-PCR-based replicon assay; assay type: functional, cell-based, Hepacivirus hominis
[6] = Lipophilicity, log D of the compound; assay type: physicochemical; conditions: octanol/water
[7] = Plasma concentration in rat at 2 mg/kg, po each in 0.5% Methylcellulose and 0.3% Tween-80 and 1% N-methylpyrrolidone after 2 hrs; assay type: ADME, organism-based; design: dose 2 mg/kg, route oral
Hepatitis C virus [8] = test: Antiviral activity against Hepatitis C virus genotype 1a infected in human Huh cells assessed as inhibition of viral replication by RT-PCR-based replicon assay; assay type: functional, cell-based, Hepacivirus hominis; conditions: subtype 1a
[9] = Bioavailability in cynomolgous monkey at 5 mg/kg, po and 2 mg/kg, iv; assay type: ADME, organism-based, Macaca fascicularis; conditions: cynomolgus monkey, in vivo
[10] = AUC in cynomolgous monkey at 5 mg/kg, po and 2 mg/kg, iv; assay type: ADME, organism-based, Macaca fascicularis; conditions: cynomolgus monkey, plasma
[11] = Half life in rat at 5 mg/kg, po and 2 mg/kg, iv; assay type: ADME, organism-based; conditions: in vivo
[12] = Volume of distribution at steady state in dog at 5 mg/kg, po and 2 mg/kg, iv; assay type: ADME, organism-based, Canis lupus familiaris; conditions: in vivo, read-out: Vdss
[13] = Bioavailability in rat at 5 mg/kg, po and 2 mg/kg, iv; assay type: ADME, organism-based; conditions: in vivo
[14] = Cmax in cynomolgous monkey at 5 mg/kg, po and 2 mg/kg, iv; assay type: ADME, organism-based, Macaca fascicularis; conditions: cynomolgus monkey, in vivo
[15] = Cmax in dog at 5 mg/kg, po and 2 mg/kg, iv; assay type: ADME, organism-based, Canis lupus familiaris; conditions: in vivo
[16] = Permeability from apical to basolateral side of human Caco2 cells; assay type: ADME, cell-based; conditions: Caco-2, read-out: permeability
[17] = Bioavailability in dog at 5 mg/kg, po and 2 mg/kg, iv; assay type: ADME, organism-based, Canis lupus familiaris; conditions: in vivo
[18] = Volume of distribution at steady state in cynomolgous monkey at 5 mg/kg, po and 2 mg/kg, iv; assay type: ADME, organism-based, Macaca fascicularis; conditions: cynomolgus monkey, in vivo, read-out: Vdss
[19] = Clearance in rat at 5 mg/kg, po and 2 mg/kg, iv; assay type: ADME, organism-based; conditions: in vivo
[20] = Half life in dog at 5 mg/kg, po and 2 mg/kg, iv; assay type: ADME, organism-based, Canis lupus familiaris; conditions: in vivo
[21] = Clearance in dog at 5 mg/kg, po and 2 mg/kg, iv; assay type: ADME, organism-based, Canis lupus familiaris; conditions: in vivo
[22] = Ratio of drug uptake in liver to plasma of rat at 5 mg/kg, po and 2 mg/kg, iv after 6 to 8 hrs; assay type: ADME, organism-based
[23] = Cmax in rat at 5 mg/kg, po and 2 mg/kg, iv; assay type: ADME, organism-based; conditions: in vivo
[24] = target: Voltage-gated inwardly rectifying potassium channel KCNH2 (Homo sapiens, UniProt Q12809); test: Inhibition of human ERG channel
Chain of Voltage-gated inwardly rectifying potassium channel KCNH2 (Q12809 whole entry): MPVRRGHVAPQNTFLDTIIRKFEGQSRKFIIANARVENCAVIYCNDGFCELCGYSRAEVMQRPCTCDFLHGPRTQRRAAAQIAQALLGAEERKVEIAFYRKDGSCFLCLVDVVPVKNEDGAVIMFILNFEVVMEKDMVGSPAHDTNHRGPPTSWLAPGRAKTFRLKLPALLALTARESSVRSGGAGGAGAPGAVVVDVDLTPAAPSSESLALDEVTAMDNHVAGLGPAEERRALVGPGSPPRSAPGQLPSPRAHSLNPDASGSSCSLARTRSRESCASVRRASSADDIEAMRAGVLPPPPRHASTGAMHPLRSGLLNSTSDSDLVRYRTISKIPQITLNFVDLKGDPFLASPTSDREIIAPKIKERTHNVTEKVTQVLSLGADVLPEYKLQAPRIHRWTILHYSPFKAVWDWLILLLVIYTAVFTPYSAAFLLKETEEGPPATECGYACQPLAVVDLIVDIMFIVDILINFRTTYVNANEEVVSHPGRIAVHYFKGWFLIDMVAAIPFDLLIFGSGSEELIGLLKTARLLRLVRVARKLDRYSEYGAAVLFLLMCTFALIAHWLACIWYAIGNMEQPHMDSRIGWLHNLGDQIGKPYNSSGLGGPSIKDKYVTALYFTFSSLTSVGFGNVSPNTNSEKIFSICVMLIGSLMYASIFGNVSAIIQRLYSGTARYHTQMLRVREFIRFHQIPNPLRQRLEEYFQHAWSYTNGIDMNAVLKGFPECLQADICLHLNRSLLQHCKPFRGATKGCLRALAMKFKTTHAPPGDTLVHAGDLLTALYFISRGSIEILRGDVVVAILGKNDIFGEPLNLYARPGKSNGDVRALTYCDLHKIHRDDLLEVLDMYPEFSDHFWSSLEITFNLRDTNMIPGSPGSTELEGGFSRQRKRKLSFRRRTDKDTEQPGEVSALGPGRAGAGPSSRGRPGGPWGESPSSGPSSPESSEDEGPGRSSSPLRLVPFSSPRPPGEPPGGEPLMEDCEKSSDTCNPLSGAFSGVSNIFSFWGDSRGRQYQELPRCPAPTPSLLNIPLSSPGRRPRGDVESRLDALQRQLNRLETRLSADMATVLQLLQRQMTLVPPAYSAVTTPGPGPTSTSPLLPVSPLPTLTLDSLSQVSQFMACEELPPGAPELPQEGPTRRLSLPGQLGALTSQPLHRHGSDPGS

[25] = AUC in rat at 5 mg/kg, po and 2 mg/kg, iv; assay type: ADME, organism-based; conditions: plasma
[26] = Clearance in cynomolgous monkey at 5 mg/kg, po and 2 mg/kg, iv; assay type: ADME, organism-based, Macaca fascicularis; conditions: cynomolgus monkey, in vivo
[27] = Half life in dog liver microsomes at 2 uM; assay type: ADME, Canis lupus familiaris
[28] = Volume of distribution at steady state in rat at 5 mg/kg, po and 2 mg/kg, iv; assay type: ADME, organism-based; conditions: in vivo, read-out: Vdss
[29] = AUC in dog at 5 mg/kg, po and 2 mg/kg, iv; assay type: ADME, organism-based, Canis lupus familiaris; conditions: plasma
[30] = Half life in cynomolgous monkey liver microsomes at 2 uM; assay type: ADME, Macaca fascicularis; conditions: cynomolgus monkey
[31] = Half life in cynomolgous monkey at 5 mg/kg, po and 2 mg/kg, iv; assay type: ADME, organism-based, Macaca fascicularis; conditions: cynomolgus monkey, in vivo

CCOc1nc(NC(=O)C2(NC(=O)c3ccc4c(C5CCCC5)c(-c5ccccn5)n(C)c4c3)CCC2)cnc1/C=C/C(=O)O
half-life at 2 µM [1]: 0.617 h | logD [2]: 3.1 | half-life at 2 µM [3]: 1.78 h | concentration at 1 h [4]: 500 nM | EC50 (Hepatitis C virus [5]): 13 nM | logD [6]: 3.1 | concentration at 2 h [7]: 200 nM

CCOc1nc(NC(=O)C(C)(C)NC(=O)c2ccc3c(c2)c(C)c(-c2ccc(F)cn2)n3C2CCCCC2)ccc1/C=C/C(=O)O
EC50 (Hepatitis C virus [8]): 14 nM | logD [2]: 3.9 | EC50 (Hepatitis C virus [5]): 3 nM

CCOc1nc(NC(=O)C2(NC(=O)c3ccc4c(C5CCCC5)c(-c5ccc(F)cn5)n(C)c4c3)CCC2)ccc1/C=C/C(=O)O
bioavailability [9]: 44% | AUC [10]: 12 µM·h | half-life [11]: 2.1 h | Vd [12]: 0.36 L/kg | bioavailability [13]: 44% | Cmax [14]: 3800 nM | half-life at 2 µM [1]: 0.95 h | Cmax [15]: 8600 nM | EC50 (Hepatitis C virus [8]): 24 nM | Papp A→B [16]: 14 ×10⁻⁶ cm/s | bioavailability [17]: 61% | Vd [18]: 0.47 L/kg | clearance [19]: 4.9 mL/min/kg | logD [2]: > 4.7 | half-life [20]: 5.1 h | half-life at 2 µM [3]: 1.37 h | clearance [21]: 1.9 mL/min/kg | Kp [22]: 6 | EC50 (Hepatitis C virus [5]): 10 nM | Cmax [23]: 5000 nM | IC50 [24]: 2100 nM | AUC [25]: 11 µM·h | clearance [26]: 4.6 mL/min/kg | half-life at 2 µM [27]: 2.52 h | Vd [28]: 0.44 L/kg | AUC [29]: 48 µM·h | half-life at 2 µM [30]: 0.433 h | half-life [31]: 2.3 h

CCOc1nc(NC(=O)C(C)(C)NC(=O)c2ccc3c(C4CCCC4)c(-c4cncnc4)n(C)c3c2)ccc1/C=C/C(=O)O
half-life at 2 µM [1]: 1.27 h | logD [2]: 3 | half-life at 2 µM [3]: 1.15 h | concentration at 1 h [4]: 200 nM | EC50 (Hepatitis C virus [5]): 12 nM | logD [6]: 3 | concentration at 2 h [7]: 100 nM

CCOc1nc(NC(=O)C2(NC(=O)c3ccc4c(C5CCCC5)c(-c5cnccn5)n(C)c4c3)CCC2)ccc1/C=C/C(=O)O
Papp A→B [16]: 13 ×10⁻⁶ cm/s | logD [2]: 3.6 | half-life at 2 µM [3]: 0.55 h | EC50 (Hepatitis C virus [5]): 8 nM

CCOc1nc(NC(=O)C2(NC(=O)c3ccc4c(C5CCCC5)c(-c5ccc(Cl)cn5)n(C)c4c3)CCC2)ccc1/C=C/C(=O)O
EC50 (Hepatitis C virus [8]): 40 nM | Papp A→B [16]: 15 ×10⁻⁶ cm/s | half-life at 2 µM [3]: 2.78 h | EC50 (Hepatitis C virus [5]): 13 nM

CCOc1nc(NC(=O)C(C)(C)NC(=O)c2ccc3c(c2)c(C)c(-c2ccc(F)cn2)n3C2CCCCC2)cnc1/C=C/C(=O)O
half-life at 2 µM [1]: 1.28 h | half-life at 2 µM [3]: 1.57 h | concentration at 1 h [4]: 300 nM | EC50 (Hepatitis C virus [5]): 12 nM | concentration at 2 h [7]: 100 nM

CCOc1nc(NC(=O)C2(NC(=O)c3ccc4c(C5CCCC5)c(-c5ncc(Cl)cn5)n(C)c4c3)CCC2)ccc1/C=C/C(=O)O
EC50 (Hepatitis C virus [8]): 24 nM | Papp A→B [16]: 15 ×10⁻⁶ cm/s | logD [2]: > 5.9 | half-life at 2 µM [3]: 1.1 h | EC50 (Hepatitis C virus [5]): 13 nM

COc1nc(NC(=O)C(C)(C)NC(=O)c2ccc3c(C4CCCC4)c(-c4ncc(Cl)cn4)n(C)c3c2)cnc1/C=C/C(=O)O
EC50 (Hepatitis C virus [8]): 270 nM | logD [2]: 2.6 | EC50 (Hepatitis C virus [5]): 17 nM

COc1nc(NC(=O)C2(NC(=O)c3ccc4c(C5CCCC5)c(-c5ccccn5)n(C)c4c3)CCC2)ccc1/C=C/C(=O)O
half-life at 2 µM [1]: 0.167 h | logD [2]: 3.5 | half-life at 2 µM [3]: 1.27 h | EC50 (Hepatitis C virus [5]): 15 nM | logD [6]: 3.5

CCOc1nc(NC(=O)C2(NC(=O)c3ccc4c(C5CCCC5)c(-c5ncc(Cl)cn5)n(C)c4c3)CCCC2)ccc1/C=C/C(=O)O
EC50 (Hepatitis C virus [8]): 14 nM | logD [2]: > 6.2 | EC50 (Hepatitis C virus [5]): 3 nM

COc1nc(NC(=O)C2(NC(=O)c3ccc4c(c3)c(C)c(-c3ccc(F)cn3)n4C3CCCCC3)CCCC2)cnc1/C=C/C(=O)O
EC50 (Hepatitis C virus [8]): 54 nM | logD [2]: 3.2 | EC50 (Hepatitis C virus [5]): 14 nM
